Data: ChEMBL document CHEMBL2216751, “PI3Kδ and PI3Kγ as targets for autoimmune and inflammatory diseases” (J Med Chem, 2012)

Tests used:
[1] = molecular target: T1, Phosphatidylinositol 4,5-bisphosphate 3-kinase catalytic subunit delta isoform (Homo sapiens, UniProt O00329)
T1 sequence (O00329 whole entry): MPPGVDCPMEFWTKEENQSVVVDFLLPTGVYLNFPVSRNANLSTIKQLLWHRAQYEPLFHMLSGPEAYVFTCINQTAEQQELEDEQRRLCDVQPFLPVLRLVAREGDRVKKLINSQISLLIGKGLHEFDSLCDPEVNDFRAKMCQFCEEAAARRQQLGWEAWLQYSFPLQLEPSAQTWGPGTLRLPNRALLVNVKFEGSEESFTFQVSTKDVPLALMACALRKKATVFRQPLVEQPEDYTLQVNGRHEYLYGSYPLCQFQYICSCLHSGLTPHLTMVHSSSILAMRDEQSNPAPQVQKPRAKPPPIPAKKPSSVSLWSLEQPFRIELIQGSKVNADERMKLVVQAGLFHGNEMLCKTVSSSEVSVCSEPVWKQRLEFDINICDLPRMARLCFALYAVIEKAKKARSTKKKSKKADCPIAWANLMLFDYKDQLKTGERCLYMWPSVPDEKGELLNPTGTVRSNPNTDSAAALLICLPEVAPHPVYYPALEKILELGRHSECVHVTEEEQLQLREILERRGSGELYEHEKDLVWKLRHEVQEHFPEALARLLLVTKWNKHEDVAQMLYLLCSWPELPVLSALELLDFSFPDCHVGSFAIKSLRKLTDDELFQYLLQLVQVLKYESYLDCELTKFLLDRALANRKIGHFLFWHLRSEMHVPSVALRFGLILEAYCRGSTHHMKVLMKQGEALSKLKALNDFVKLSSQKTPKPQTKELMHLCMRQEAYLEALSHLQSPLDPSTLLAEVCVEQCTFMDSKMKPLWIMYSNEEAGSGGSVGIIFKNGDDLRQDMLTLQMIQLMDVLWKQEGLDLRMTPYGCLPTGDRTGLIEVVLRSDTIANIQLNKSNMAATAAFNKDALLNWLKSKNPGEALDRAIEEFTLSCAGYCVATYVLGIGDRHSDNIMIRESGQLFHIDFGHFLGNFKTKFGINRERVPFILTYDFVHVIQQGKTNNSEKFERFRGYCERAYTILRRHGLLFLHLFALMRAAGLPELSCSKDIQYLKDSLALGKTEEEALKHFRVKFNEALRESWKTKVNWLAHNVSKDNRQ

[2] = molecular target: T2, Phosphatidylinositol 4,5-bisphosphate 3-kinase catalytic subunit gamma isoform (Homo sapiens, UniProt P48736); assay: Inhibition of PI3Kgamma-mediated Akt phosphorylation in T cells by flow cytometry; assay type: cell-based, T-cell
Target sequence in this assay (P48736 whole entry, canonical isoform): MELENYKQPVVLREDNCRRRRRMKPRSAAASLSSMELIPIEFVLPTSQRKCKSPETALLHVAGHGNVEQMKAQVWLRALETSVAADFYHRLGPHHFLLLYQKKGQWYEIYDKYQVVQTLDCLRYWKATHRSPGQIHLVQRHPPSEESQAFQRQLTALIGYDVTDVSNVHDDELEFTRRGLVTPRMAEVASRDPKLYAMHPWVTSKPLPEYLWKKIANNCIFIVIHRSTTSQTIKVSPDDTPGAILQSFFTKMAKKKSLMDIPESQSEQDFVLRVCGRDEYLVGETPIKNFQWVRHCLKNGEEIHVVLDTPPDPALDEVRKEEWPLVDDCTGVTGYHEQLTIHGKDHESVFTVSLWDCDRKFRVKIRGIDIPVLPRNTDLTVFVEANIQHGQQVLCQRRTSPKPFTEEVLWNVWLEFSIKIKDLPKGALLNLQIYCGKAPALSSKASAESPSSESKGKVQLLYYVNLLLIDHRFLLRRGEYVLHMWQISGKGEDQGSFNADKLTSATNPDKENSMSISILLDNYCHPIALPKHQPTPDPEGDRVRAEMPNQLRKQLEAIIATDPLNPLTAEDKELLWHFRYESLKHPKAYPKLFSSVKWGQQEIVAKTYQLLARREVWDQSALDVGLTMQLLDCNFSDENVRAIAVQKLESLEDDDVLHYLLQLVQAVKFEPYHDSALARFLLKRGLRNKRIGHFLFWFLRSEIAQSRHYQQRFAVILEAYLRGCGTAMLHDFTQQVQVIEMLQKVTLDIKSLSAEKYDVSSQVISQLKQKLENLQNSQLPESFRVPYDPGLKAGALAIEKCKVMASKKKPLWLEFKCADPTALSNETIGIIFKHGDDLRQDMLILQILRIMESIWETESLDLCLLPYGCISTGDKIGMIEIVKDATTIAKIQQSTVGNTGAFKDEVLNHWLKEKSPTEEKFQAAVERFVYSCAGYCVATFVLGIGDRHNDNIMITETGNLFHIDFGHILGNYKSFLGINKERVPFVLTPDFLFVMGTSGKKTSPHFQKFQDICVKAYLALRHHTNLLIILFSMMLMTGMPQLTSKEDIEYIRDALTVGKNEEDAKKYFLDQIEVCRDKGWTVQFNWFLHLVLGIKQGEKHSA

[3] = molecular target: T1, Phosphatidylinositol 4,5-bisphosphate 3-kinase catalytic subunit delta isoform; assay: Inhibition of PI3Kdelta in human whole blood assessed as inhibition of CD69 production in B lymphocyte by immunoassay
[4] = molecular target: T1, Phosphatidylinositol 4,5-bisphosphate 3-kinase catalytic subunit delta isoform; assay: Inhibition of PI3Kdelta in human PBMC
[5] = Oral bioavailability in Han-Wistar rat; assay type: ADME, organism-based; details: in vivo
[6] = Clearance in Han-Wistar rat; assay type: ADME, organism-based; details: in vivo
[7] = molecular target: T1, Phosphatidylinositol 4,5-bisphosphate 3-kinase catalytic subunit delta isoform; assay: Inhibition of PI3Kdelta in neutrophil assessed as inhibition of superoxide production by cell-based assay
[8] = molecular target: T3, Phosphatidylinositol 4,5-bisphosphate 3-kinase catalytic subunit delta isoform (Homo sapiens) (UniProt O00329); assay: Inhibition of PI3Kdelta-mediated Akt phosphorylation at 10 uM by cell-based assay
T3 sequence (whole entry): T1 sequence (O00329 whole entry)

[9] = molecular target: Phosphatidylinositol 4,5-bisphosphate 3-kinase catalytic subunit beta isoform (Homo sapiens) (UniProt P42338); assay: Inhibition of PI3Kbeta at 1 uM
[10] = molecular target: Phosphatidylinositol 4,5-bisphosphate 3-kinase catalytic subunit alpha isoform (Homo sapiens) (UniProt P42336); assay: Inhibition of PI3Kalpha at 1 uM
[11] = molecular target: T2, Phosphatidylinositol 4,5-bisphosphate 3-kinase catalytic subunit gamma isoform; assay: Inhibition of PI3Kgamma at 1 uM
Target sequence in this assay (P48736 whole entry, looked up, canonical isoform): as the sequence (P48736 whole entry, canonical isoform) above

Sequence of Phosphatidylinositol 4,5-bisphosphate 3-kinase catalytic subunit alpha isoform (Homo sapiens) (P42336 whole entry, canonical isoform): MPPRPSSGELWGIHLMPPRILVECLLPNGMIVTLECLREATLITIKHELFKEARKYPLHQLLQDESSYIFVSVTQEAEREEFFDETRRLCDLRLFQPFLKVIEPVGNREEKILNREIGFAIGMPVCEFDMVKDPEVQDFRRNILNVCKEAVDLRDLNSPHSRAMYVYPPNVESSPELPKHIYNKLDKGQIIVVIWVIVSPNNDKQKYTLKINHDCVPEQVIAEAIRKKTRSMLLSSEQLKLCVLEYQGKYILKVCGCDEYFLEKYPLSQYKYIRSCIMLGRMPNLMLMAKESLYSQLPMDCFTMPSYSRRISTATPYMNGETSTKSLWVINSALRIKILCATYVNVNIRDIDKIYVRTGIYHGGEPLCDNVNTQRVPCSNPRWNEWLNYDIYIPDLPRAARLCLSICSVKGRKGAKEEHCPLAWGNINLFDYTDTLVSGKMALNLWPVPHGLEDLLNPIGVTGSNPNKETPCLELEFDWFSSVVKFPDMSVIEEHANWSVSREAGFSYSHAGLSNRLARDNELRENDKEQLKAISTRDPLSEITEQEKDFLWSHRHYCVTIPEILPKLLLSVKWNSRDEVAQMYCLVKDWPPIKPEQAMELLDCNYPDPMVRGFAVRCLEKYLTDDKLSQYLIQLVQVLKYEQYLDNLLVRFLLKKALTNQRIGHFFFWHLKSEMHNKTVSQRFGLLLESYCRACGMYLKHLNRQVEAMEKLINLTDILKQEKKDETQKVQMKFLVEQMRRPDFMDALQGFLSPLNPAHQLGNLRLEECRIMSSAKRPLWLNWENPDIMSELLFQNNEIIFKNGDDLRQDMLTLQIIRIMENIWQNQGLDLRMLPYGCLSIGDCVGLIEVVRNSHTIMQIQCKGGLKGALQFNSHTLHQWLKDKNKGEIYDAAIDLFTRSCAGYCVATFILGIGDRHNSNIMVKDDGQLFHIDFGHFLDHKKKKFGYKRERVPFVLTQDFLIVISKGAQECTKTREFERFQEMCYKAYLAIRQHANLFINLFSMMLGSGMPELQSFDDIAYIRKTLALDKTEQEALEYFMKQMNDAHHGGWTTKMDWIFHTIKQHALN
Sequence of Phosphatidylinositol 4,5-bisphosphate 3-kinase catalytic subunit beta isoform (Homo sapiens) (P42338 whole entry, looked up, canonical isoform): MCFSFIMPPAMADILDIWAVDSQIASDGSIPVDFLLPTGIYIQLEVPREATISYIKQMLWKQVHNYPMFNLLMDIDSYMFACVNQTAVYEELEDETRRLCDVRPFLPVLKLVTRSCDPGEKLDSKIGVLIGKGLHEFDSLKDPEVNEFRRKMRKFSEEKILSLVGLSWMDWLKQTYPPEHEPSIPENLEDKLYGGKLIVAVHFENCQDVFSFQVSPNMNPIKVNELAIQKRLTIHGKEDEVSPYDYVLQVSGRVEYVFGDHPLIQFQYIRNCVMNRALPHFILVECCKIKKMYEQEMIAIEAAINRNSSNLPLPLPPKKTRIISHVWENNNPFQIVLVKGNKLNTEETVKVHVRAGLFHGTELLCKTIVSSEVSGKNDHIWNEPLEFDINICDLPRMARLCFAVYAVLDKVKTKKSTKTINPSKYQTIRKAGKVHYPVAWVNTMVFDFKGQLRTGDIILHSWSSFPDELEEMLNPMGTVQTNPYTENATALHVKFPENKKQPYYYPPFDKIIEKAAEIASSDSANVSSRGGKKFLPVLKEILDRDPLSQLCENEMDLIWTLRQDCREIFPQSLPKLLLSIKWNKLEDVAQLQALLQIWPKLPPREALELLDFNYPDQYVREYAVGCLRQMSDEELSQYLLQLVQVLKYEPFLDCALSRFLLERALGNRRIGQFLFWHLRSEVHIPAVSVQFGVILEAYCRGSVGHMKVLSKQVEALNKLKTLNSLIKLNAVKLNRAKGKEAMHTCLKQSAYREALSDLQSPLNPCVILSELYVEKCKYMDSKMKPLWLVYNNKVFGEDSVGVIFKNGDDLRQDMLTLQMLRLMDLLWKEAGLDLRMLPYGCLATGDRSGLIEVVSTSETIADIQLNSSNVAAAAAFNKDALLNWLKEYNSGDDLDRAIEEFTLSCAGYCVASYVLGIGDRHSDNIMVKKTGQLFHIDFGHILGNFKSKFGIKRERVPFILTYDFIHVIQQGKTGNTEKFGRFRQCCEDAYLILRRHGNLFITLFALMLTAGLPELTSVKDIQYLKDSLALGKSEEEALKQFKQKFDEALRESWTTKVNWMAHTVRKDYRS

In the case of `O=C(Nc1cc(-c2cnc3[nH]ncc3c2)cc2[nH]ncc12)c1cccc(CN2CCS(=O)(=O)CC2)n1`, the pIC50 [1] is reported as “>= 5” and the IC50 [2] is reported as at most 10000 nM.
In the case of `CC[C@H]1CN(c2sc(-c3nnc[nH]3)c(-c3ccc(Cl)cc3Cl)c2C#N)CCO1`, the IC50 ([1]; read-out: IC50) is reported as under 100 nM.
`CC(C)c1nc2ccccc2n1-c1nc(N2CCOCC2)c2nc(OC3CN(C4CCS(=O)(=O)CC4)C3)n(C)c2n1` gave an IC50 [3] of 3 nM.
`Cc1c(-c2ccccn2)nc2cc(F)cc(F)c2c1Nc1cc(N2CCOCC2)cnc1-c1ccc(O)cc1` showed a Ki [1] of 2.85 nM.
Work on `Cc1cccc2cc(C(C)Nc3ncnc4[nH]cnc34)nc(OC3CCN(C)CC3)c12` (stereo unspecified) yielded an IC50 ([1]; read-out: IC50) of under 100 nM.
With `Cc1nc(C(=O)Nc2cc(-c3cnc4[nH]nc(S(C)(=O)=O)c4c3)cc3[nH]ncc23)cs1` the pIC50 [1] was “>= 5”.
`COc1cc2c(CC3CCCC(C)C3)c(C(=O)Nc3nn[nH]n3)sc2cc1C` (stereo unspecified) gave an IC50 ([1]; read-out: IC50) of 3 nM.
`Nc1ncc(-c2ccc(Cl)c(S(=O)(=O)Nc3ccccc3)c2)nc1C(=O)c1cccnc1` showed an IC50 ([1]; read-out: IC50) of 12 nM.
In the case of `CCNC(=O)Nc1nc2ccc(-c3cncc(C(F)(F)F)c3)cc2s1`, the Ki [1] is reported as 10 nM.
In the case of `CC(=O)Nc1nc(C)c(-c2csc(C(=O)Nc3nnn[nH]3)n2)s1`, the IC50 ([1]; read-out: IC50) is reported as 13 nM.
Compound `CC(Nc1ncnc2[nH]cnc12)c1c(C#N)c2ccc(Cl)cc2n1-c1cccc(F)c1` (stereo unspecified) has an IC50 ([1]; read-out: IC50) of under 50 nM.
For `COc1ccccc1S(=O)(=O)Nc1cc(-c2cc(NC(=O)c3csc(CN4C[C@@H](C)O[C@@H](C)C4)n3)c3cn[nH]c3c2)cnc1OC`, the IC50 [4] was at most 10000 nM and the pIC50 [1] was “>= 5”.
For `Cc1ccc(-c2ccc3c(c2)N(C2=NC4CC(C)(C)NC(=O)C4S2)CCO3)nn1` (stereo unspecified), the bioavailability [5] was 66%.
Work on `C[C@H](Nc1ncnc(N)c1C#N)c1nc2ccc(F)cc2c(NCCS(C)(=O)=O)c1-c1ccccc1` yielded a Ki [1] of 2.26 nM.
For `CN1CCOC(C(=O)Nc2cc(-c3cccc4[nH]ccc34)cc3[nH]ncc23)C1` (stereo unspecified), the pIC50 [1] was “>= 5” and the IC50 [2] was at most 1000 nM.
Work on `Cn1cc(-c2ccc3c(c2)N(C2=NC4CC(C)(C)NC(=O)C4S2)CCO3)cn1` (stereo unspecified) yielded a clearance [6] of 7 mL/min/kg, a bioavailability [5] of 97% and an IC50 [7] of 111 nM.
`CC(C)(Oc1cccc2[nH]c(-c3nccc(-c4cncc(S(N)(=O)=O)c4)n3)cc12)C(=O)O` gave an inhibition [8] of over 95%.
`CC(c1oc2ccccc2c(=O)c1-c1cccc(F)c1)n1cnc2c(N)ncnc21` (stereo unspecified) showed an inhibition [9] of under 25%, an inhibition [10] of under 25% and an IC50 ([1]; read-out: IC50) of under 250 nM. The inhibition [11] was under 25%.
`C[C@H](Nc1ncnc2[nH]cnc12)c1nc2ccsc2c(=O)n1-c1ccccc1` gave an IC50 ([1]; read-out: IC50) of 6 nM.
For `O=C(CN1CCOCC1)Nc1cc(-c2cc(F)cc3[nH]ccc23)cc2[nH]ncc12`, the pIC50 [1] was “>= 5”.
Work on `Clc1ccc(-c2nc(N3CCOCC3)sc2-c2nnc[nH]2)c(Cl)c1` yielded an IC50 ([1]; read-out: IC50) of under 100 nM.
`CCN(CC)C(=O)c1cccc(Nc2nc3ccc(-c4cncc(OC)c4)cc3s2)n1` showed a Ki [1] of 3 nM.
For `Cc1nc(C(=O)Nc2cc(-c3ccnc4[nH]ccc34)cc3[nH]ncc23)cs1`, the pIC50 [1] was “>= 5” and the IC50 [2] was at most 1000 nM.
For `CC(=O)Nc1nc(C)c(-c2ccc(Cl)c(S(=O)(=O)N[C@@H](C)C(=O)OC3CCCC3)c2)s1`, the IC50 ([1]; read-out: IC50) was under 100 nM.
Work on `CCOC(=O)CCNC(=O)Nc1nc2c(s1)CN(c1cnc(Cl)c(OC)c1)CC2` yielded a Ki [1] of 3 nM.
For `COc1ccc(-c2cc(-c3ncc(CN4C[C@@H](C)O[C@@H](C)C4)o3)c3cn[nH]c3c2)cc1NS(C)(=O)=O`, the IC50 ([1]; read-out: pIC50 (converted)) was under 100 nM.
Work on `Cn1c(C(=O)NCC(F)(F)F)nc2c(N3CCC(n4c(=O)[nH]c5ncccc54)CC3)ncnc21` yielded an IC50 ([1]; read-out: IC50) of under 50 nM.
